Assay results published in ChEMBL document CHEMBL1201861, “Genomics of Drug Sensitity in Cancer screening data, Wellcome Trust Sanger Institute”.

Experiments:
Assay in all cases: cells
[1] = test system: MPP-89; assay type: functional, cell-based, Homo sapiens; conditions: Homo sapiens, MPP-89;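 also: growth inhibition of human MPP-89 cells, read out with a cell viability assay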
Description: SANGER: Inhibition of human MPP-89 cell growth in a cell viability assay.

[2] = test system: MHH-NB-11; assay type: functional, cell-based, Homo sapiens; conditions: Homo sapiens, MHH-NB-11;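 also: growth inhibition of human MHH-NB-11 cells, read out by a cell viability assay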
Description: SANGER: Inhibition of human MHH-NB-11 cell growth in a cell viability assay.

[3] = test system: REH; assay type: functional, cell-based, Homo sapiens; conditions: Homo sapiens, REH;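 also: growth inhibition of REH cells determined with a cell viability read-out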
Description: SANGER: Inhibition of human REH cell growth in a cell viability assay.

[4] = test system: DJM-1; assay type: functional, cell-based, Homo sapiens; conditions: Homo sapiens, DJM-1;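 also: growth inhibition of human DJM-1 cells, read out by a cell viability assay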
Description: SANGER: Inhibition of human DJM-1 cell growth in a cell viability assay.

[5] = test system: U-87 MG; assay type: functional, cell-based, Homo sapiens, U-87MG ATCC; conditions: Homo sapiens, U-87 MG;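 also: growth inhibition of the cells measured with a viability assay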
Description: SANGER: Inhibition of human U-87-MG cell growth in a cell viability assay.

[6] = test system: SIMA; assay type: functional, cell-based, Homo sapiens; conditions: Homo sapiens, SIMA;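 also: growth inhibition of SIMA cells, measured with a cell viability readout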
Description: SANGER: Inhibition of human SIMA cell growth in a cell viability assay.

[7] = test system: KM12; assay type: functional, cell-based, Homo sapiens; conditions: Homo sapiens, KM12;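 also: KM12 cell growth inhibition, read out with a cell viability assay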
Description: SANGER: Inhibition of human KM12 cell growth in a cell viability assay.

[8] = test system: EVSA-T; assay type: functional, cell-based, Homo sapiens; conditions: Homo sapiens, EVSA-T;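 also: growth inhibition of EVSA-T cells, read out with a cell viability assay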
Description: SANGER: Inhibition of human EVSA-T cell growth in a cell viability assay.

[9] = test system: EW-18; assay type: functional, cell-based, Homo sapiens; conditions: Homo sapiens, EW-18;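 also: growth inhibition of EW-18 cells, read out by a cell viability assay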
Description: SANGER: Inhibition of human EW-18 cell growth in a cell viability assay.

[10] = test system: MDA-MB-134-VI; assay type: functional, cell-based, Homo sapiens; conditions: Homo sapiens, MDA-MB-134-VI
Description: SANGER: Inhibition of human MDA-MB-134-VI cell growth in a cell viability assay.

[11] = test system: MFH-ino; assay type: functional, cell-based, Homo sapiens; conditions: Homo sapiens, MFH-ino;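 also: growth inhibition of human MFH-ino cells, read out by a cell viability assay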
Description: SANGER: Inhibition of human MFH-ino cell growth in a cell viability assay.

[12] = test system: IMR-5; assay type: functional, cell-based, Homo sapiens; conditions: Homo sapiens, IMR-5;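 also: growth inhibition of human IMR-5 cells, read out with a cell viability assay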
Description: SANGER: Inhibition of human IMR-5 cell growth in a cell viability assay.

[13] = test system: MC-CAR; assay type: functional, cell-based, Homo sapiens; conditions: Homo sapiens, MC-CAR;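 also: growth inhibition of the human MC-CAR cell line, read out by a cell viability assay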
Description: SANGER: Inhibition of human MC-CAR cell growth in a cell viability assay.

[14] = test system: MFM-223; assay type: functional, cell-based, Homo sapiens; conditions: Homo sapiens, MFM-223
Description: SANGER: Inhibition of human MFM-223 cell growth in a cell viability assay.

[15] = test system: D-263MG; assay type: functional, cell-based, Homo sapiens; conditions: Homo sapiens, D-263MG
Description: SANGER: Inhibition of human D-263MG cell growth in a cell viability assay.

[16] = test system: PF-382; assay type: functional, cell-based, Homo sapiens; conditions: Homo sapiens, PF-382
Description: SANGER: Inhibition of human PF-382 cell growth in a cell viability assay.

[17] = test system: NCI-H1522; assay type: functional, cell-based, Homo sapiens; conditions: Homo sapiens, NCI-H1522;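 also: growth inhibition of NCI-H1522 cells, read out with a cell viability assay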
Description: SANGER: Inhibition of human NCI-H1522 cell growth in a cell viability assay.

[18] = test system: CTB-1; assay type: functional, cell-based, Homo sapiens; conditions: Homo sapiens, CTB-1
Description: SANGER: Inhibition of human CTB-1 cell growth in a cell viability assay.

[19] = test system: UACC-812; assay type: functional, cell-based, Homo sapiens; conditions: Homo sapiens, UACC-812
Description: SANGER: Inhibition of human UACC-812 cell growth in a cell viability assay.

[20] = test system: SJSA-1; assay type: functional, cell-based, Homo sapiens; conditions: Homo sapiens, SJSA-1;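 also: growth inhibition of human SJSA-1 cells, read out through a cell viability measurement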
Description: SANGER: Inhibition of human SJSA-1 cell growth in a cell viability assay.

[21] = test system: MHH-PREB-1; assay type: functional, cell-based, Homo sapiens; conditions: Homo sapiens, MHH-PREB-1;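 also: cell viability assay measuring inhibition of proliferation of human MHH-PREB-1 cells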
Description: SANGER: Inhibition of human MHH-PREB-1 cell growth in a cell viability assay.

[22] = test system: U-698-M; assay type: functional, cell-based, Homo sapiens; conditions: Homo sapiens, U-698-M
Description: SANGER: Inhibition of human U-698-M cell growth in a cell viability assay.

[23] = test system: ETK-1; assay type: functional, cell-based, Homo sapiens; conditions: Homo sapiens, ETK-1;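 also: growth inhibition of human ETK-1 cells, read out with a cell viability assay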
Description: SANGER: Inhibition of human ETK-1 cell growth in a cell viability assay.

[24] = test system: SF-126; assay type: functional, cell-based, Homo sapiens; conditions: Homo sapiens, SF-126;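 also: growth inhibition of human SF126 cells, read out with a cell viability assay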
Description: SANGER: Inhibition of human SF126 cell growth in a cell viability assay.

[25] = test system: RS4-11; assay type: functional, cell-based, Homo sapiens; conditions: Homo sapiens, RS4-11;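 also: growth inhibition of RS4-11 cells, read out by a cell viability assay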
Description: SANGER: Inhibition of human RS4-11 cell growth in a cell viability assay.

[26] = test system: DMS-153; assay type: functional, cell-based, Homo sapiens; conditions: Homo sapiens, DMS-153
Description: SANGER: Inhibition of human DMS-153 cell growth in a cell viability assay.

[27] = test system: KMS-12-PE; assay type: functional, cell-based, Homo sapiens; conditions: Homo sapiens, KMS-12-PE;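 also: growth inhibition of human KMS-12-PE cells, measured with a cell viability assay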
Description: SANGER: Inhibition of human KMS-12-PE cell growth in a cell viability assay.

[28] = test system: SK-MEL-2; assay type: functional, cell-based, Homo sapiens; conditions: Homo sapiens, SK-MEL-2;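 also: growth inhibition of human SK-MEL-2 cells measured with a cell viability assay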
Description: SANGER: Inhibition of human SK-MEL-2 cell growth in a cell viability assay.

SMILES | IC50 [1] | IC50 [2] | IC50 [3] | IC50 [4] | IC50 [5] | IC50 [6] | IC50 [7] | IC50 [8] | IC50 [9] | IC50 [11] | IC50 [12] | IC50 [13] | IC50 [14] | IC50 [15] | IC50 [16] | IC50 [18] | IC50 [20] | IC50 [21] | IC50 [22] | IC50 [23] | further results
COc1cc(N2CCN(C)CC2)ccc1Nc1ncc2c(n1)N(C)c1ccccc1C(=O)N2C | 4.5 µM | > 8 µM | > 8 µM | > 8 µM | > 8 µM | > 8 µM | > 8 µM | > 8 µM | > 8 µM | > 8 µM | 6.35 µM | > 8 µM | > 8 µM | > 8 µM | 4.94 µM | 7.52 µM | > 8 µM | 3.84 µM | > 8 µM | > 8 µM | IC50 [10]: > 8 µM; IC50 [17]: > 8 µM; IC50 [19]: > 8 µM; IC50 [24]: > 8 µM; IC50 [25]: 3.42 µM; IC50 [26]: > 8 µM; IC50 [27]: > 8 µM; IC50 [28]: > 8 µM
Cc1ccc(-c2c(C(=O)CCl)n(CCCO)c3ncnc(N)c23)cc1 | > 4 µM | > 4 µM | > 4 µM | > 4 µM | > 4 µM | > 4 µM | > 4 µM | 2.4 µM | > 4 µM | > 4 µM | > 4 µM | > 4 µM | > 4 µM | > 4 µM | 1.22 µM | 1.62 µM | > 4 µM | 3.94 µM | > 4 µM | > 4 µM | IC50 [10]: > 4 µM; IC50 [17]: > 4 µM; IC50 [24]: > 4 µM; IC50 [25]: > 4 µM; IC50 [26]: > 4 µM; IC50 [27]: > 4 µM; IC50 [28]: > 4 µM
C#Cc1cccc(Nc2ncnc3cc(OCCOC)c(OCCOC)cc23)c1 [ERLOTINIB] | > 2 µM | > 2 µM | > 2 µM | > 2 µM | > 2 µM | > 2 µM | > 2 µM | > 2 µM | > 2 µM | > 2 µM | > 2 µM | > 2 µM | > 2 µM | > 2 µM | > 2 µM | > 2 µM | > 2 µM | > 2 µM | > 2 µM | > 2 µM | IC50 [19]: > 2 µM; IC50 [24]: > 2 µM; IC50 [25]: > 2 µM; IC50 [26]: > 2 µM; IC50 [27]: > 2 µM; IC50 [28]: > 2 µM
COc1cc2ncn(-c3cc(OCc4ccccc4S(C)(=O)=O)c(C#N)s3)c2cc1OC [GSK-319347A] | > 5 µM | > 5 µM | > 5 µM | > 5 µM | > 5 µM | > 5 µM | > 5 µM | > 5 µM | > 5 µM | > 5 µM | > 5 µM | > 5 µM | > 5 µM | > 5 µM | > 5 µM | > 5 µM | > 5 µM | > 5 µM | > 5 µM | > 5 µM | IC50 [10]: > 5 µM; IC50 [17]: > 5 µM; IC50 [19]: > 5 µM; IC50 [24]: > 5 µM; IC50 [25]: > 5 µM; IC50 [26]: > 5 µM; IC50 [27]: > 5 µM; IC50 [28]: > 5 µM
COc1cc2ncn(-c3cc(OCc4ccccc4C(F)(F)F)c(C(N)=O)s3)c2cc1OC [GW843682X] | 0.226 µM | 0.227 µM | > 0.256 µM | 0.0606 µM | > 0.256 µM | > 0.256 µM | 0.0165 µM | 0.237 µM | > 0.256 µM | 0.0355 µM | 0.0354 µM | 0.0761 µM | > 0.256 µM | > 0.256 µM | 0.0334 µM | > 0.256 µM | 0.0327 µM | 0.0208 µM | > 0.256 µM | 0.0173 µM | IC50 [10]: > 0.256 µM; IC50 [17]: > 0.256 µM; IC50 [24]: 0.138 µM; IC50 [25]: 0.0128 µM; IC50 [26]: > 0.256 µM; IC50 [27]: > 0.256 µM; IC50 [28]: > 0.256 µM
CC(=O)O[C@H]1C(=O)[C@@]2(C)[C@H]([C@H](OC(=O)c3ccccc3)[C@]3(O)C[C@H](OC(=O)[C@H](O)[C@@H](NC(=O)c4ccccc4)c4ccccc4)C(C)=C1C3(C)C)[C@]1(OC(C)=O)CO[C@@H]1C[C@@H]2O [PACLITAXEL] | > 0.102 µM | > 0.102 µM | > 0.102 µM | 0.0053 µM | > 0.102 µM | > 0.102 µM | 0.00637 µM | 0.0392 µM | > 0.102 µM | 0.00268 µM | 0.0045 µM | 0.0233 µM | > 0.102 µM | > 0.102 µM | 0.0238 µM | 0.0781 µM | 0.0177 µM | 0.0219 µM | > 0.102 µM | 0.00152 µM | IC50 [10]: > 0.102 µM; IC50 [17]: > 0.102 µM; IC50 [24]: 0.0613 µM; IC50 [25]: 0.00836 µM; IC50 [26]: > 0.102 µM; IC50 [27]: > 0.102 µM; IC50 [28]: > 0.102 µM
N[C@@H](CSC(c1ccccc1)(c1ccccc1)c1ccccc1)C(=O)O [S-TRITYL-L-CYSTEINE] | > 5.12 µM | 4.67 µM | > 5.12 µM | > 5.12 µM | > 5.12 µM | > 5.12 µM | 4.67 µM | 3.4 µM | > 5.12 µM | 0.471 µM | 1.27 µM | 1.21 µM | > 5.12 µM | > 5.12 µM | 1.67 µM | 3.2 µM | 0.75 µM | > 5.12 µM | > 5.12 µM | 5.04 µM | IC50 [10]: > 5.12 µM; IC50 [17]: > 5.12 µM; IC50 [24]: 3.01 µM; IC50 [25]: 1.3 µM; IC50 [26]: > 5.12 µM; IC50 [27]: > 5.12 µM; IC50 [28]: > 5.12 µM
CC[C@H](CO)Nc1nc(NCc2ccccc2)c2ncn(C(C)C)c2n1 [SELICICLIB] | > 16 µM | > 16 µM | > 16 µM | > 16 µM | > 16 µM | > 16 µM | > 16 µM | > 16 µM | > 16 µM | > 16 µM | > 16 µM | > 16 µM | > 16 µM | > 16 µM | > 16 µM | > 16 µM | > 16 µM | > 16 µM | > 16 µM | > 16 µM | IC50 [10]: > 16 µM; IC50 [17]: > 16 µM; IC50 [19]: > 16 µM; IC50 [24]: > 16 µM; IC50 [25]: > 16 µM; IC50 [26]: > 16 µM; IC50 [27]: > 16 µM; IC50 [28]: > 16 µM
